Laboratory results taken from PubChem BioAssay (NCI).
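How tested: cells in 96-well plates exposed to compound for 48 hours at five concentrations. GI50 is the concentration that inhibits growth by half. TGI is the concentration that stops growth completely.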

Legend:
Assay in all cases: growth of human tumour cells (NCI), 48 h
786-0 renal = test system: 786-0 renal
A498 renal = test system: A498 renal
A549 NSCLC = test system: A549 NSCLC
ACHN renal = test system: ACHN renal
BT-549 breast = test system: BT-549 breast
CAKI-1 renal = test system: CAKI-1 renal
CCRF-CEM leukemia = test system: CCRF-CEM leukemia
COLO 205 colon = test system: COLO 205 colon
DU-145 prostate = test system: DU-145 prostate
EKVX NSCLC = test system: EKVX NSCLC
HCC-2998 colon = test system: HCC-2998 colon
HCT-116 colon = test system: HCT-116 colon
HCT-15 colon = test system: HCT-15 colon
HL-60(TB) leukemia = test system: HL-60(TB) leukemia
HOP-62 NSCLC = test system: HOP-62 NSCLC
HOP-92 NSCLC = test system: HOP-92 NSCLC
HS 578T breast = test system: HS 578T breast
HT29 colon = test system: HT29 colon
IGROV1 ovarian = test system: IGROV1 ovarian
KM12 colon = test system: KM12 colon
LOX IMVI melanoma = test system: LOX IMVI melanoma
M14 melanoma = test system: M14 melanoma
MALME-3M melanoma = test system: MALME-3M melanoma
MCF7 breast = test system: MCF7 breast
MDA-MB-231 breast = test system: MDA-MB-231 breast
MDA-MB-435 = test system: MDA-MB-435
MDA-N = test system: MDA-N
MOLT-4 leukemia = test system: MOLT-4 leukemia
NCI-H226 lung = test system: NCI-H226 lung
NCI-H23 lung = test system: NCI-H23 lung
NCI-H460 lung = test system: NCI-H460 lung
NCI-H522 lung = test system: NCI-H522 lung
NCI/ADR-RES ovarian = test system: NCI/ADR-RES ovarian
OVCAR-3 ovarian = test system: OVCAR-3 ovarian
OVCAR-4 ovarian = test system: OVCAR-4 ovarian
OVCAR-5 ovarian = test system: OVCAR-5 ovarian
OVCAR-8 ovarian = test system: OVCAR-8 ovarian
PC-3 prostate = test system: PC-3 prostate
RPMI-8226 leukemia = test system: RPMI-8226 leukemia
RXF 393 renal = test system: RXF 393 renal
SF-268 CNS = test system: SF-268 CNS
SF-295 CNS = test system: SF-295 CNS
SF-539 CNS = test system: SF-539 CNS
SK-MEL-2 melanoma = test system: SK-MEL-2 melanoma
SK-MEL-28 melanoma = test system: SK-MEL-28 melanoma
SK-MEL-5 melanoma = test system: SK-MEL-5 melanoma
SK-OV-3 ovarian = test system: SK-OV-3 ovarian
SN12C renal = test system: SN12C renal
SNB-19 CNS = test system: SNB-19 CNS
SNB-75 CNS = test system: SNB-75 CNS
SR leukemia = test system: SR leukemia
SW-620 colon = test system: SW-620 colon
T-47D breast = test system: T-47D breast
TK-10 renal = test system: TK-10 renal
U251 CNS = test system: U251 CNS
UACC-257 melanoma = test system: UACC-257 melanoma
UACC-62 melanoma = test system: UACC-62 melanoma
UO-31 renal = test system: UO-31 renal

**Q.** With `N#CCc1nc(C#N)c(N)o1` as the compound, how does the TGI (786-0 renal) read?
**A.** Its TGI is greater than 100 µM.

**Q.** And the TGI (A498 renal)?
**A.** The TGI was greater than 100 µM.

**Q.** What about the TGI (A549 NSCLC) of the same compound?
**A.** The TGI was greater than 100 µM.

**Q.** And the TGI (ACHN renal)?
**A.** Its TGI is greater than 100 µM.

**Q.** And the TGI (BT-549 breast)?
**A.** The TGI was greater than 100 µM.

**Q.** And the TGI (CAKI-1 renal)?
**A.** The TGI was greater than 100 µM.

**Q.** What about the TGI (CCRF-CEM leukemia) of the same compound?
**A.** Its TGI is greater than 100 µM.

**Q.** And the TGI (COLO 205 colon)?
**A.** Its TGI is greater than 100 µM.

**Q.** What about the TGI (DU-145 prostate) of the same compound?
**A.** Its TGI is greater than 100 µM.

**Q.** What about the GI50 (EKVX NSCLC) of the same compound?
**A.** Its GI50 is greater than 100 µM.

**Q.** And the TGI (EKVX NSCLC)?
**A.** The TGI was greater than 100 µM.

**Q.** And the TGI (HCC-2998 colon)?
**A.** Its TGI is greater than 100 µM.

**Q.** What about the TGI (HCT-116 colon) of the same compound?
**A.** Its TGI is greater than 100 µM.

**Q.** And the TGI (HCT-15 colon)?
**A.** The TGI was greater than 100 µM.

**Q.** What about the GI50 (HL-60(TB) leukemia) of the same compound?
**A.** The GI50 was greater than 100 µM.

**Q.** And the TGI (HL-60(TB) leukemia)?
**A.** The TGI was greater than 100 µM.

**Q.** What about the TGI (HOP-62 NSCLC) of the same compound?
**A.** Its TGI is greater than 100 µM.

**Q.** What about the TGI (HOP-92 NSCLC) of the same compound?
**A.** Its TGI is greater than 100 µM.

**Q.** And the TGI (HS 578T breast)?
**A.** The TGI was greater than 100 µM.

**Q.** And the TGI (HT29 colon)?
**A.** The TGI was greater than 100 µM.

**Q.** And the TGI (IGROV1 ovarian)?
**A.** The TGI was greater than 100 µM.

**Q.** And the TGI (KM12 colon)?
**A.** The TGI was greater than 100 µM.

**Q.** And the GI50 (LOX IMVI melanoma)?
**A.** Its GI50 is greater than 100 µM.

**Q.** What about the TGI (LOX IMVI melanoma) of the same compound?
**A.** The TGI was greater than 100 µM.

**Q.** And the TGI (M14 melanoma)?
**A.** The TGI was greater than 100 µM.

**Q.** And the TGI (MALME-3M melanoma)?
**A.** Its TGI is greater than 100 µM.

**Q.** What about the TGI (MCF7 breast) of the same compound?
**A.** Its TGI is greater than 100 µM.

**Q.** And the TGI (MDA-MB-231 breast)?
**A.** Its TGI is greater than 100 µM.

**Q.** What about the TGI (MDA-MB-435) of the same compound?
**A.** Its TGI is greater than 100 µM.

**Q.** And the TGI (MDA-N)?
**A.** Its TGI is greater than 100 µM.

**Q.** And the TGI (MOLT-4 leukemia)?
**A.** The TGI was greater than 100 µM.

**Q.** What about the TGI (NCI-H226 lung) of the same compound?
**A.** Its TGI is greater than 100 µM.

**Q.** What about the TGI (NCI-H23 lung) of the same compound?
**A.** The TGI was greater than 100 µM.

**Q.** And the TGI (NCI-H460 lung)?
**A.** The TGI was greater than 100 µM.

**Q.** What about the TGI (NCI-H522 lung) of the same compound?
**A.** Its TGI is greater than 100 µM.

**Q.** What about the TGI (NCI/ADR-RES ovarian) of the same compound?
**A.** Its TGI is greater than 100 µM.

**Q.** And the TGI (OVCAR-3 ovarian)?
**A.** Its TGI is greater than 100 µM.

**Q.** And the TGI (OVCAR-4 ovarian)?
**A.** The TGI was greater than 100 µM.

**Q.** What about the TGI (OVCAR-5 ovarian) of the same compound?
**A.** The TGI was greater than 100 µM.

**Q.** And the TGI (OVCAR-8 ovarian)?
**A.** Its TGI is greater than 100 µM.

**Q.** And the TGI (PC-3 prostate)?
**A.** Its TGI is greater than 100 µM.

**Q.** What about the GI50 (RPMI-8226 leukemia) of the same compound?
**A.** The GI50 was greater than 100 µM.

**Q.** And the TGI (RPMI-8226 leukemia)?
**A.** The TGI was greater than 100 µM.

**Q.** What about the TGI (RXF 393 renal) of the same compound?
**A.** The TGI was greater than 100 µM.

**Q.** What about the TGI (SF-268 CNS) of the same compound?
**A.** The TGI was greater than 100 µM.

**Q.** What about the TGI (SF-295 CNS) of the same compound?
**A.** Its TGI is greater than 100 µM.

**Q.** What about the TGI (SF-539 CNS) of the same compound?
**A.** The TGI was greater than 100 µM.

**Q.** What about the TGI (SK-MEL-2 melanoma) of the same compound?
**A.** The TGI was greater than 100 µM.

**Q.** What about the TGI (SK-MEL-28 melanoma) of the same compound?
**A.** The TGI was greater than 100 µM.

**Q.** What about the GI50 (SK-MEL-5 melanoma) of the same compound?
**A.** The GI50 was greater than 100 µM.

**Q.** What about the TGI (SK-MEL-5 melanoma) of the same compound?
**A.** Its TGI is greater than 100 µM.

**Q.** What about the TGI (SK-OV-3 ovarian) of the same compound?
**A.** Its TGI is greater than 100 µM.

**Q.** What about the TGI (SN12C renal) of the same compound?
**A.** Its TGI is greater than 100 µM.

**Q.** And the GI50 (SNB-19 CNS)?
**A.** Its GI50 is greater than 100 µM.

**Q.** What about the TGI (SNB-19 CNS) of the same compound?
**A.** Its TGI is greater than 100 µM.

**Q.** What about the GI50 (SNB-75 CNS) of the same compound?
**A.** The GI50 was greater than 100 µM.

**Q.** What about the TGI (SNB-75 CNS) of the same compound?
**A.** Its TGI is greater than 100 µM.

**Q.** What about the TGI (SR leukemia) of the same compound?
**A.** The TGI was greater than 100 µM.

**Q.** What about the TGI (SW-620 colon) of the same compound?
**A.** Its TGI is greater than 100 µM.

**Q.** And the TGI (T-47D breast)?
**A.** The TGI was greater than 100 µM.

**Q.** What about the TGI (TK-10 renal) of the same compound?
**A.** Its TGI is greater than 100 µM.

**Q.** And the TGI (U251 CNS)?
**A.** The TGI was greater than 100 µM.

**Q.** What about the TGI (UACC-257 melanoma) of the same compound?
**A.** Its TGI is greater than 100 µM.

**Q.** What about the TGI (UACC-62 melanoma) of the same compound?
**A.** Its TGI is greater than 100 µM.

**Q.** And the TGI (UO-31 renal)?
**A.** Its TGI is greater than 100 µM.
